Values quoted from earlier work in patent US20220040193A1, “FORMULATIONS OF PHOSPHOINOSITIDE 3-KINASE INHIBITORS” (VENTHERA, INC., priority 2020, published 2022).

In the case of `Oc1cccc(-c2nc(N3CCOCC3)c3sccc3n2)c1` [MTPP, 3-(4-morpholinothieno(3,2-d)pyrimidin-2-yl)phenol], the “cancer cell growth inhibiting activity” value (cancer cell) is given as “cancer cell growth inhibiting activity” and the PI3K inhibiting activity (PI3K) is given as “excellent PI3K inhibiting activity”.
